Laboratory results published in the supplement of paper PMC13380429.

Assays:
Conditions in all cases: 72 h
[1] = test system: Caco-2; test: cell viability relative to DMSO; higher = less toxic
[2] = test system: Calu-3; test: as above
[3] = test system: U2OS; test: as above
[4] = test system: Vero E6; test: as above
[5] = test system: Caco-2; test: relative viability EC50 (midpoint between 100% and the lowest measured viability); higher = less toxic
[6] = test system: Calu-3; test: as above
[7] = test system: U2OS; test: as above
[8] = test system: Vero E6; test: as above
[9] = test system: Caco-2; test: drug sensitivity score (DSS) for viability; higher = more toxic; extreme values may be limits of the assay
[10] = test system: Calu-3; test: as above
[11] = test system: U2OS; test: as above
[12] = test system: Vero E6; test: as above
[13] = test system: HepG2; test: cell viability relative to DMSO; higher = less toxic
[14] = test system: HepG2; test: relative viability EC50 (midpoint between 100% and the lowest measured viability); higher = less toxic
[15] = test system: HepG2; test: drug sensitivity score (DSS) for viability; higher = more toxic; extreme values may be limits of the assay

| SMILES | cell viability ([1]; 1 nM) | cell viability ([1]; 10 nM) | cell viability ([1]; 100 nM) | cell viability ([1]; 1000 nM) | cell viability ([1]; 10000 nM) | cell viability ([2]; 1 nM) | cell viability ([2]; 10 nM) | cell viability ([2]; 100 nM) | cell viability ([2]; 1000 nM) | cell viability ([2]; 10000 nM) | cell viability ([3]; 1 nM) | cell viability ([3]; 10 nM) | cell viability ([3]; 100 nM) | cell viability ([3]; 1000 nM) | cell viability ([3]; 10000 nM) | cell viability ([4]; 1 nM) | cell viability ([4]; 10 nM) | cell viability ([4]; 100 nM) | cell viability ([4]; 1000 nM) | cell viability ([4]; 10000 nM) | relative viability EC50 [5] | relative viability EC50 [6] | relative viability EC50 [7] | relative viability EC50 [8] | drug sensitivity score [9] | drug sensitivity score [10] | drug sensitivity score [11] | drug sensitivity score [12] | cell viability ([13]; 1 nM) | cell viability ([13]; 10 nM) | cell viability ([13]; 100 nM) | cell viability ([13]; 1000 nM) | cell viability ([13]; 10000 nM) | relative viability EC50 [14] | drug sensitivity score [15] |
| --- | --- | --- | --- | --- | --- | --- | --- | --- | --- | --- | --- | --- | --- | --- | --- | --- | --- | --- | --- | --- | --- | --- | --- | --- | --- | --- | --- | --- | --- | --- | --- | --- | --- | --- | --- |
| CCC1(C)CC(=O)NC1=O (configuration not stated) [ethosuximide] | 87% | 77.2% | 88.5% | 84.8% | 84.6% | 110% | 93.6% | 89.8% | 107% | 94% | 102% | 93.4% | 102% | 99.6% | 100% | 99.2% | 106% | 101% | 103% | 96.6% | > 10 µM | > 10 µM | > 10 µM | > 10 µM | 0 | 0 | 0 | 0 | – | – | – | – | – | – | – |
| Cc1ccc(C(=O)Nc2ccc(Oc3cc4cnn(C)c4cc3-c3cn[nH]c3)c(F)c2)c(=O)n1-c1ccc(F)cc1 | 98% | 94.9% | 102% | 99.3% | 53.8% | 92% | 91.9% | 101% | 70.7% | 65.3% | 101% | 95.5% | 98.8% | 96.9% | 69.9% | 103% | 99.6% | 96.7% | 92.1% | 68.1% | – | – | – | – | 2.5 | 5.1 | 1.8 | 2.6 | 102% | 110% | 97.4% | 75.5% | 15.6% | 1.43 µM | 8.3 |
| COc1cc(N)c(Cl)cc1C(=O)OCCCN1CCCCC1 | 116% | 108% | 104% | 98.3% | 107% | 106% | 102% | 93.5% | 114% | 104% | 101% | 94.9% | 98.1% | 104% | 102% | 106% | 104% | 107% | 104% | 99.7% | > 10 µM | > 10 µM | > 10 µM | > 10 µM | 0 | 0 | 0 | 0 | – | – | – | – | – | – | – |
| CNC(=O)c1ccc(Nc2ncc(C(F)(F)F)c(NCc3nccnc3N(C)S(C)(=O)=O)n2)cc1 [defactinib] | 95.4% | 101% | 90.1% | 100% | 89.9% | 97.5% | 86.2% | 106% | 88.1% | 95.6% | 98.2% | 100% | 93.8% | 96.5% | 75% | 106% | 99.8% | 101% | 84.2% | 76% | > 10 µM | > 10 µM | > 10 µM | > 10 µM | 0 | 0 | 1.5 | 2.6 | 100% | 95.2% | 107% | 81.4% | 68.1% | – | 3.6 |
| O=[N+]([O-])c1cc([N+](=O)[O-])c(/C=C/c2ccc(Cl)c(Cl)c2)cc1/C=C/c1ccc(Cl)c(Cl)c1 | 91.4% | 97.2% | 89% | 102% | 86.3% | 100% | 98.5% | 87.2% | 97.6% | 95.9% | 68.7% | 102% | 94.8% | 110% | 94.1% | 103% | 105% | 101% | 102% | 97.3% | > 10 µM | > 10 µM | > 10 µM | > 10 µM | 0.1 | 0 | 0 | 0 | – | – | – | – | – | – | – |
| COc1ccc2[nH]c([S@@+]([O-])Cc3ncc(C)c(OC)c3C)nc2c1 [esomeprazole] | 97.2% | 101% | 101% | 102% | 83.1% | 98.3% | 108% | 110% | 96.9% | 103% | 102% | 102% | 95% | 102% | 95.8% | 93.8% | 108% | 100% | 97.8% | 107% | > 10 µM | > 10 µM | > 10 µM | > 10 µM | 0.3 | 0 | 0 | 0 | – | – | – | – | – | – | – |
| C=Cc1cc(O)cc2nc(-c3ccc(O)c(F)c3)oc12 [prinaberel] | 95.5% | 99.7% | 88.7% | 90% | 91.9% | 96.8% | 104% | 95.3% | 95.9% | 93.4% | 100% | 101% | 94.6% | 98.6% | 96.9% | 103% | 99.9% | 98% | 100% | 95.5% | > 10 µM | > 10 µM | > 10 µM | > 10 µM | 0.7 | 0 | 0 | 0 | 102% | 104% | 93.4% | 103% | 74.6% | – | 0.8 |
| CCCCCCC[N+](CC)(CC)CCCCc1ccc(Cl)cc1 [clofilium] | 114% | 106% | 101% | 108% | 54.4% | 83.9% | 106% | 91.8% | 93.6% | 87.7% | 95.7% | 95.6% | 97.7% | 93% | 92.2% | 89% | 102% | 95.2% | 104% | 116% | – | > 10 µM | > 10 µM | > 10 µM | 1.9 | 0 | 0 | 0 | 94.1% | 124% | 135% | 122% | 72.5% | – | 0.6 |
| O=C(c1ccc(OCCCc2c[nH]cn2)cc1)C1CC1 [ciproxifan] | 101% | 97.1% | 91.8% | 94.2% | 88.4% | 93.4% | 101% | 99.9% | 88.2% | 93.1% | 96.1% | 105% | 96.8% | 95.8% | 97.5% | 101% | 102% | 101% | 101% | 94.2% | > 10 µM | > 10 µM | > 10 µM | > 10 µM | 0 | 0.5 | 0 | 0 | 106% | 107% | 99.8% | 74.3% | 88.6% | – | 4.1 |
| O=C(Nc1cccc(Nc2ncc(Br)c(NCCc3cnc[nH]3)n2)c1)N1CCCC1 [BX-912] | 103% | 93.4% | 102% | 94.6% | 101% | 108% | 95.4% | 104% | 102% | 91.2% | 102% | 93.2% | 97.5% | 98.3% | 55.9% | 97.7% | 93.5% | 94.4% | 95.8% | 91.5% | > 10 µM | > 10 µM | – | > 10 µM | 0 | 0 | 2.5 | 0 | 103% | 91.8% | 103% | 82.3% | 55.8% | – | 4.7 |
| COC(=O)C1=C(C)NC(C)=C(C(=O)O[C@H]2CCN(Cc3ccccc3)C2)[C@H]1c1cccc([N+](=O)[O-])c1 [barnidipine] | 108% | 92.8% | 102% | 105% | 73.1% | 100% | 99.4% | 99.8% | 95.9% | 82.4% | 98.6% | 103% | 97.5% | 98.2% | 88.8% | 87.7% | 88.6% | 105% | 106% | 87.7% | – | > 10 µM | > 10 µM | > 10 µM | 0.8 | 0.9 | 0.1 | 0 | 105% | 105% | 85.1% | 95.6% | 73.8% | – | 1.4 |
| Cc1ccc(Cl)c(Nc2ccccc2C(=O)O)c1Cl [meclofenamic-acid] | 97.6% | 103% | 95.8% | 102% | 91.2% | 98.2% | 101% | 88.1% | 109% | 91.8% | 99.3% | 103% | 97.1% | 105% | 96.2% | 105% | 93.7% | 102% | 101% | 96.5% | > 10 µM | > 10 µM | > 10 µM | > 10 µM | 0 | 0 | 0 | 0 | – | – | – | – | – | – | – |
